According to ChEMBL document CHEMBL3507680, “University of Dundee, Gates Library screen for HepG2 cell viability”:

Assay: Human HepG2 cell viability assay in 384 well format
Type: toxicity, cell-based
Set-up: dose 125 nL, time 70.5 hour; concentration not given beside the values
Conditions: HepG2 cells, read-out: Inhibition

Structure (SMILES) | cytotoxicity at 70.5 h [%]
CCN(CC)C(=O)c1ccc(Cl)c(NC(=O)c2csnn2)c1 | -10.1
Cc1cnccc1N1CCN(C[C@]2(O)CCCN3CCCC[C@@H]32)CC1 | 4.29
CC(C)n1cnnc1CN(C)Cc1ccc(CN(C)S(C)(=O)=O)o1 | -2.72
COCC(=O)N(Cc1cccnc1)CC1CCCN(C2CCCCC2)C1 (stereo not given) | -5.51
Cc1ncc(C(=O)N2CCCCC2c2nc3cc(F)ccc3[nH]2)c(O)n1 (stereo not given) | -20
O=C(CCc1cc2n(n1)CCCN(C(=O)c1ccncc1)C2)NC1CC1 | -6.73
CCCOc1cc(Cl)c(CN2CCNC(C(=O)NC3CC3)C2)cc1OC (stereo not given) | -10.6
COc1ccc2c(c1)CC(NCCCn1nc(C)nc1C)CC2 (stereo not given) | -9.14
CCCc1nnc(NC(C)c2ccc(F)cc2)o1 (stereo not given) | -8.69
CC(C)CC(O)C1CCN(Cc2ccc(N(C)C)nc2)CC1 (stereo not given) | 23.2
CCCn1ccnc1CN1CCCC(O)(CN(C)C)CC1 (stereo not given) | -3.55
COc1ccc(C(C(=O)O)N2CCC(Cn3cccn3)CC2)cc1F (stereo not given) | 22.7
Cc1nn(CCN2CCSCC2)cc1CNCc1ccccn1 | -5.69
O=C(c1ccc(=O)[nH]c1)N1CCC(Oc2cccc(C(F)(F)F)c2)CC1 | 3.69
COCC1(Nc2nc(C)nc3c2cnn3C)CCCC1 | 3.28
Cn1ncc(N2CCN(Cc3ccc(S(C)(=O)=O)cc3)CC2)cc1=O | -5.42
CC(=O)N1CCc2c(nc(N(C)C)nc2N(C)CCCC2CCCO2)C1 (stereo not given) | 10.7
COCCNS(=O)(=O)c1cccc2c1CN(C(=O)c1cnccn1)CC2 | -3.11
C[C@@H]1CN(C2CCN(c3ccccc3F)CC2)C[C@]1(C)O | -6.48
Cn1c(-c2ccccc2Cl)nc2cc(C(=O)NCC3(CO)CC3)cnc21 | -10
COC(=O)C(C)(C)NC(=O)c1cc(COc2ccccc2OC)[nH]n1 | 10.6
OCC1(O)CCN(Cc2ccc(C3CCCCO3)o2)CC1 (stereo not given) | -1.61
O=C(NCCC1COc2ccccc2O1)c1ccc(-c2cc[nH]n2)nc1 (stereo not given) | -4.68
CCC[C@H]1CN(S(C)(=O)=O)C[C@@H]1NC(=O)COC(C)C | -5.47
COc1ccc(F)c(-c2ncccc2C(=O)N2C[C@H]3CC[C@@H]2C3)c1 | -9.45
Cc1ccc(C(=O)O)cc1CNC(=O)CN1CC[C@](C)(O)C(C)(C)C1 | -6.88
Cc1ccsc1-c1nccn1CCS(=O)(=O)N1CCCC1 | 8.18
Cc1ccc(C(=O)N2CCCC(Cn3cc(C(C)(C)N)nn3)C2)s1 (stereo not given) | -4.81

Structure (SMILES) | cytotoxicity at 70.5 h [%]
O=C(Cc1ccccc1C(F)(F)F)N1CCC2(CC1)[C@H](O)C[C@@H]2O | -6.88
O=c1cc(N2CCNCC2)cnn1CCc1ccc(F)cc1 | -4.81
Cc1ccc(C)c(-n2cc(CN3CC[C@@H](O)C3)c(-c3ccccc3)n2)c1 | -0.782
O=C1CN(Cc2cn(C3CCN(C4CSCCSC4)CC3)nn2)CCN1 | -13.2
CN1[C@H](CO)C[C@H](CNCc2ccc(Cl)c(F)c2)[C@@H]1c1ccccc1F | -3.08
COCCn1cnnc1C(C)NC(=O)c1[nH]c2c(C)cc(C)cc2c1C (stereo not given) | 14
CCCC(=O)N(Cc1ccncc1)C(C)CC (stereo not given) | -6.83
Cc1cc(C)c2nc(C)cc(C(=O)NC(C)c3nnn[nH]3)c2c1 (stereo not given) | 6.58
CC(C)[C@H]1CN(c2cnccn2)C[C@@H]1NC(=O)C1(C#N)CCOCC1 | -6.21
CN1CCN(C(=O)c2ccnc(N3CCOC(C(F)(F)F)C3)c2)CC1 (stereo not given) | 19
CCc1nccn1CCC(=O)N1CC[C@@H](c2ccc(F)cc2)[C@H](O)C1 | -12.3
CC(C)(C)c1ccn(C2(C(=O)O)CCN(c3ccnc(N)n3)CC2)n1 | -3.43
CCC(=O)c1ccc(OCC(=O)NC(C)c2nnn[nH]2)cc1 (stereo not given) | -0.478
Cc1cc(C(=O)NC(C)c2nnn[nH]2)c2ccc(C)c(C)c2n1 (stereo not given) | 34.8
CSc1ccc(C(=O)N2CCCC(Nc3ccc(F)cc3)C2)cc1 (stereo not given) | -0.171
O=C1CC[C@H]2CN(Cc3cccc(F)c3)CC[C@H]2N1CCc1c[nH]cn1 | -2.79
Clc1cc(NCc2nccs2)nc2[nH]ccc12 | -30.7
O=C(NC[C@H]1CCCN1)c1cc(COc2cccc(C(F)(F)F)c2)[nH]n1 | -2.98
O=C(c1cccc2ccnn12)N1CCCC1Cn1cccn1 (stereo not given) | -2.56
Cc1cc(C(=O)N[C@H]2COC[C@@H]2N2CCOCC2)c2ccc(F)cc2n1 | -8.8
OC1(CN2CCCCC2)CCN(Cc2c[nH]c(CC3CCCC3)n2)C1 (stereo not given) | -8.48
CN(C)C(=O)c1cccnc1-c1ccc2c(c1)OCCO2 | -18.6
COCc1ccc(C(=O)N2CCCN(c3ccc(F)cc3)CC2)s1 | 5.91
Cc1cc2nc(C(C)C)cc(NC(C)c3nncn3C)n2n1 (stereo not given) | -17.3
CCN(Cc1cnn(C)c1)C[C@H]1CC[C@@H](Cc2cccc(C#N)c2)O1 | -5.55
CC(=O)N1CCC(N2CCN(Cc3ccc(C)o3)C(CCO)C2)CC1 (stereo not given) | -6.87
COc1cccn(C(C)C(=O)NC2CCCC2)c1=O (stereo not given) | -1.93
